Results published in paper PMC10529583, “A new polymodal gating model of the proton-activated chloride channel” (PLOS Biology, 2023).

Key:
Type in all cases: cell-based
[1] = biological target: T1, human PAC channel (wt-PAC) (Homo sapiens, UniProt Q9H813); experiment: whole-cell patch clamp, inhibition of proton-evoked current; conditions: pH 4.6, open-state pore site (site 2, second site), voltage ramp -70 to +80 mV
T1 construct: gene PACC1; full-length, homotrimer; pCMV-blank, transiently expressed in PACC1-knockout HEK293T cells; library screen on endogenous PAC of HEK293T cells

[2] = biological target: T2, human PAC channel (wt-PAC) (Homo sapiens, UniProt Q9H813, A321C); experiment: whole-cell patch clamp, inhibition of basal current
T2 construct: gene PACC1; full-length, homotrimer; pCMV-blank, transiently expressed in PACC1-knockout HEK293T cells; library screen on endogenous PAC of HEK293T cells

[3] = biological target: T3, human PAC channel (wt-PAC) (Homo sapiens, UniProt Q9H813, A81C/L309A/P303A/T306A); experiment: whole-cell patch clamp, inhibition of current
T3 construct: gene PACC1; full-length, homotrimer; pCMV-blank, transiently expressed in PACC1-knockout HEK293T cells; library screen on endogenous PAC of HEK293T cells

[4] = biological target: T1, human PAC channel (wt-PAC); experiment: whole-cell patch clamp, activation of proton-evoked current
[5] = biological target: T2, human PAC channel (wt-PAC); experiment: whole-cell patch clamp, activation of current
[6] = biological target: T4, human PAC channel (wt-PAC) (Homo sapiens, UniProt Q9H813, F196A); experiment: whole-cell patch clamp, inhibition of current
T4 construct: gene PACC1; full-length, homotrimer; pCMV-blank, transiently expressed in PACC1-knockout HEK293T cells; library screen on endogenous PAC of HEK293T cells

[7] = biological target: T5, human PAC channel (wt-PAC) (Homo sapiens, UniProt Q9H813, F196A/R237A); experiment: whole-cell patch clamp, inhibition of current
T5 construct: gene PACC1; full-length, homotrimer; pCMV-blank, transiently expressed in PACC1-knockout HEK293T cells; library screen on endogenous PAC of HEK293T cells

[8] = biological target: T6, human PAC channel (wt-PAC) (Homo sapiens, UniProt Q9H813, R237A); experiment: whole-cell patch clamp, effect of […] compound on current; conditions: root pH of the mutant; inhibited, not activated
T6 construct: gene PACC1; full-length, homotrimer; pCMV-blank, transiently expressed in PACC1-knockout HEK293T cells; library screen on endogenous PAC of HEK293T cells

[9] = biological target: T7, human PAC channel (wt-PAC) (Homo sapiens, UniProt Q9H813, P303A/T306A/L309A); experiment: whole-cell patch clamp, activation of current; conditions: pH 5.34; activation (site 1)
T7 construct: gene PACC1; full-length, homotrimer; pCMV-blank, transiently expressed in PACC1-knockout HEK293T cells; library screen on endogenous PAC of HEK293T cells

[10] = biological target: T8, human PAC channel (wt-PAC) (Homo sapiens, UniProt Q9H813, A81C); experiment: whole-cell patch clamp, inhibition of current
T8 construct: gene PACC1; full-length, homotrimer; pCMV-blank, transiently expressed in PACC1-knockout HEK293T cells; library screen on endogenous PAC of HEK293T cells
T8 sequence (Q9H813 whole entry A81C): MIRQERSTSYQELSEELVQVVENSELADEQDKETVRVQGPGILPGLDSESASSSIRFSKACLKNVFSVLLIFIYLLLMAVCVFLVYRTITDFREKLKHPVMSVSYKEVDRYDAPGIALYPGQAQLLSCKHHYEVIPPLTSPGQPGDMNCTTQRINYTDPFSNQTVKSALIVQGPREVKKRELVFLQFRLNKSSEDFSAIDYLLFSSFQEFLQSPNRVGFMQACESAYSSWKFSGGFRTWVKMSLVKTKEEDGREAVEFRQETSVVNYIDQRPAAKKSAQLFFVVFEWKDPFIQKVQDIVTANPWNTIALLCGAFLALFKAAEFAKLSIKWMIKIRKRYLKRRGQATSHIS

T2 sequence (Q9H813 whole entry A321C): as the sequence (Q9H813 whole entry A81C) above, with C81A, A321C counted along it
T1 sequence (Q9H813 whole entry): as the sequence (Q9H813 whole entry A81C) above, with C81A counted along it
T7 sequence (Q9H813 whole entry P303A/T306A/L309A): as the sequence (Q9H813 whole entry A81C) above, with C81A, P303A, T306A, L309A counted along it
T5 sequence (Q9H813 whole entry F196A/R237A): as the sequence (Q9H813 whole entry A81C) above, with C81A, F196A, R237A counted along it
T4 sequence (Q9H813 whole entry F196A): as the sequence (Q9H813 whole entry A81C) above, with C81A, F196A counted along it
T3 sequence (Q9H813 whole entry A81C/P303A/T306A/L309A): as the sequence (Q9H813 whole entry A81C) above, with P303A, T306A, L309A counted along it
T6 sequence (Q9H813 whole entry R237A): as the sequence (Q9H813 whole entry A81C) above, with C81A, R237A counted along it

IC50 [1]: 8.3 ± 1.0 µM
IC50 [2]: 11.8 ± 1.9 µM
IC50 [3]: ~200 µM
EC50 [4]: 0.6 ± 0.2 µM
EC50 [5]: 1 ± 0.4 µM
IC50 [6]: 3 ± 0.5 µM
IC50 [7]: 5.7 ± 0.9 µM
IC50 [10]: 18.3 ± 3 µM
Compound: Cc1occc1C(=O)Nc1ccc(I)cc1C(=O)O [C77304, 5–iodo–2–(2–methylfuran–3–carboxamido)benzoicacid]
whole-cell patch clamp, effect of 5 μM compound on current [8]: currents mediated by the PAC/R237A mutant, but not any others, were significantly inhibited
whole-cell patch clamp, activation of current [9]: the P303A/T306A/L309A mutations did not affect the activation effect of C77304 on the channel
